In this experiment the target is jack bean urease (Canavalia ensiformis, UniProt P07374). In words: biochemical. The conditions noted are these: for urease inhibitory activity in words: in vitro assay, authors' verbal grading. The procedure:
Reaction mixture comprising of 25μL of enzyme (jack bean urease) (1 unit/well) solution and 55 μL of phosphate buffers (4 mM) containing 100 mM urea were incubated with 5 μL of test compounds dissolved in methanol (0.5 mM concentration) at 30 °C for 15 min in 96-well plates. Urease activity was determined by measuring ammonia production using the indophenol method as described by Weather burn. Briefly, 45 μl each phenol reagent (1 % w/v phenol and 0.005 % w/v sodium nitroprussside) and 70 μL of alkali reagent(0.5 % w/v NaOH and 0.1 % active chloride NaOCl) were added to each well. The increasing absorbance at 630 nm was measured afther 50 min, using a microplate reader (Molecular Device, USA). All reactions were performed in triplicate in a final volume of 200 μL. The results (change in absorbance per min) were processed by using softMax Pro software (molecular Device, USA). The entire assays were performed at pH 6.8. Percentage inhibitions were calculated from the formula 100 − (ODtestwell/ODcontrol) × 100. Thiourea was used as the standard inhibitor of urease.

The source of these data is PMC4648982 (Chemistry Central Journal, 2015).

What is called IC50 is the point on the concentration scale where inhibition reaches its midpoint. Higher therefore signals a need for much substance.

SMILES strings stand for the structures. “Also recorded” adds a separate entry of the source. Counter-ions that a name gives are not always drawn.

Sequence of jack bean urease (P07374 whole entry, looked up): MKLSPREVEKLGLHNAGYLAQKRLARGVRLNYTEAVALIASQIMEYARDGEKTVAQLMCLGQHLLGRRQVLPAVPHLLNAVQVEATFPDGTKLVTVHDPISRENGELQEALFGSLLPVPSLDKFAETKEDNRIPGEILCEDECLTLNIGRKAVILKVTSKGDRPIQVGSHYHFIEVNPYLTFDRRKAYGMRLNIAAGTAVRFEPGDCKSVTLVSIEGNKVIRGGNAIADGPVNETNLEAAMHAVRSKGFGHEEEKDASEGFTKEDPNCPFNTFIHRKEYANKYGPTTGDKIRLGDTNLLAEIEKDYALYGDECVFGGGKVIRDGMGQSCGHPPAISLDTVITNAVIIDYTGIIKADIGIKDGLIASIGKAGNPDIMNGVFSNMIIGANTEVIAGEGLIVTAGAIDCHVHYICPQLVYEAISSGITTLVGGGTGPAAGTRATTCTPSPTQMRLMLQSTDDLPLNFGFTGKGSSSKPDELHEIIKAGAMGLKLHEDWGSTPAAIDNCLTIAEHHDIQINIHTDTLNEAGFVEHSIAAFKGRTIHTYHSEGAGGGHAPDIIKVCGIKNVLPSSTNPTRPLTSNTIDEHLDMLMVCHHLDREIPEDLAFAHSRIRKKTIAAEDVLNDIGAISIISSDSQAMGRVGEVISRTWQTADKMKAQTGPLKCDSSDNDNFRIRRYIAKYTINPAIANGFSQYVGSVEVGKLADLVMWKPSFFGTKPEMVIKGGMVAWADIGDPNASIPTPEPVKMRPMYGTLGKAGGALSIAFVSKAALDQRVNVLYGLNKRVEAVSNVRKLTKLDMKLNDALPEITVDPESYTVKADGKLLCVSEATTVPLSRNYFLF

`CC1(C)CC(=O)C(C(C2=C(O)CC(C)(C)CC2=O)c2ccc(Cl)cc2)=C(O)C1` [Compound 5b, 2-((4-Chlorophenyl)(2-hydroxy-4,4-dimethyl-6-oxocyclohex-1-en-1-yl)methyl)-5,5-dimethyl-3-oxocyclohex-1-enolate diethylaminium salt] displayed an IC50 of 29.7 ± 0.67 µM.

Regarding `COc1ccc(C(C2=C(O)CC(C)(C)CC2=O)C2=C(O)CC(C)(C)CC2=O)cc1` [Compound 5e, 2-((2-Hydroxy-4,4-dimethyl-6-oxocyclohex-1-en-1-yl)(4-methoxyphenyl)methyl)-5,5-dimethyl-3-oxocyclohex-1-enolate diethylaminium salt], 39.8 ± 0.75 µM corresponded to half-maximal inhibition (IC50). Take `CC1(C)CC(=O)C(C(C2=C(O)CC(C)(C)CC2=O)c2ccc([N+](=O)[O-])cc2)=C(O)C1` [Compound 5f, 2-((2-Hydroxy-4,4-dimethyl-6-oxocyclohex-1-en-1-yl)(4-nitrophenyl)methyl)-5,5-dimethyl-3-oxocyclohex-1-enolate diethylaminium salt]: it took 106 ± 1.49 µM to reach half-maximal inhibition (IC50) and the “urease inhibitory activity in words” value is on record as “inactivity”. As to `CC1(C)CC(=O)C(C(C2=C(O)CC(C)(C)CC2=O)c2c(Cl)cccc2Cl)=C(O)C1` [Compound 5g, 2-((2,6-Dichlorophenyl)(2-hydroxy-4,4-dimethyl-6-oxocyclohex-1-en-1-yl)methyl)-5,5-dimethyl-3-oxocyclohex-1-enolate diethylaminium salt], the midpoint of inhibition, the IC50, lay at 170.7 ± 1.55 µM and the “urease inhibitory activity in words” value is “least active; also recorded: inactivity”. Taken in the same sequence, the figures for `CC1(C)CC(=O)C(C(C2=C(O)CC(C)(C)CC2=O)c2cccc([N+](=O)[O-])c2)=C(O)C1` [Compound 5h, 2-((2-Hydroxy-4,4-dimethyl-6-oxocyclohex-1-en-1-yl)(3-nitrophenyl)methyl)-5,5-dimethyl-3-oxocyclohex-1-enolate diethylaminium salt] were 49 ± 0.55 µM and “good urease inhibitory activity”. On to `CC1(C)CC(=O)C(C(C2=C(O)CC(C)(C)CC2=O)c2ccccc2[N+](=O)[O-])=C(O)C1` [Compound 5i, 2-((2-Hydroxy-4,4-dimethyl-6-oxocyclohex-1-en-1-yl)(2-nitrophenyl)methyl)-5,5-dimethyl-3-oxocyclohex-1-enolate diethylaminium salt], for which it took 210.1 ± 0.29 µM to reach half-maximal inhibition (IC50) and the “urease inhibitory activity in words” value is on record as “inactivity”.

With `CC1(C)CC(=O)C(C(C2=C(O)CC(C)(C)CC2=O)c2ccc(C=O)cc2)=C(O)C1` [Compound 5j, 2-((4-Formylphenyl)(2-hydroxy-4,4-dimethyl-6-oxocyclohex-1-en-1-yl)methyl)-5,5-dimethyl-3-oxocyclohex-1-enolate diethylaminium salt], the IC50 turned out to be 72.6 ± 0.59 µM. `CC1(C)CC(=O)C(C(C2=C(O)CC(C)(C)CC2=O)c2ccc(O)cc2)=C(O)C1` [Compound 5k, 2-((2-Hydroxy-4,4-dimethyl-6-oxocyclohex-1-en-1-yl)(4-hydroxyphenyl)methyl)-5,5-dimethyl-3-oxocyclohex-1-enolate diethylaminium salt]: it took 43.8 ± 0.33 µM to reach half-maximal inhibition (IC50) and the “urease inhibitory activity in words” value was “good urease inhibitory activity”.

Regarding `Cn1c(O)c(C(c2ccc(C=O)cc2)c2c(O)[nH]c(=O)[nH]c2=O)c(=O)n(C)c1=O` (stereo not drawn) [Compound 5l, 4-((6-Hydroxy-1,3-dimethyl-2,4-dioxo-1,2,3,4-tetrahydropyrimidin-5-yl)(6-hydroxy-2,4-dioxo-1,2,3,4-tetrahydropyrimidin-5-yl)methyl)benzaldehyde diethylaminium salt], half-maximal inhibition (IC50) was put at 17.2 ± 0.44 µM and the “urease inhibitory activity in words” value was “most active”.

Take `CC1(C)CC(=O)C(C(c2ccc(Cl)cc2)c2c(O)[nH]c(=O)[nH]c2=O)=C(O)C1` (stereo not drawn) [Compound 5m, 5-((4-Chlorophenyl)(2-hydroxy-4,4-dimethyl-6-oxocyclohex-1-en-1-yl)methyl)-2,6-dioxo-1,2,3,6-tetrahydropyrimidin-4-olate diethylaminium salt]: the IC50 was 65.9 ± 0.61 µM. For `CC1(C)CC(=O)C(C(c2ccccc2)c2c(O)[nH]c(=O)[nH]c2=O)=C(O)C1` (stereo not drawn) [Compound 5n, 5-((2-Hydroxy-4,4-dimethyl-6-oxocyclohex-1-en-1-yl)(phenyl)methyl)-2,6-dioxo-1,2,3,6-tetrahydropyrimidin-4-olate diethylaminium salt], the midpoint of inhibition, the IC50, lay at 23.7 ± 0.57 µM and the “urease inhibitory activity in words” value was “active”. The molecule `CC1(C)CC(=O)C(C(c2ccc(Br)cc2)c2c(O)[nH]c(=O)[nH]c2=O)=C(O)C1` (stereo not drawn) [Compound 5o, 5-((4-Bromophenyl)(2-hydroxy-4,4-dimethyl-6-oxocyclohex-1-en-1-yl)methyl)-2,6-dioxo-1,2,3,6-tetrahydropyrimidin-4-olate diethylaminium salt] had an IC50 of 34.6 ± 0.79 µM.

Molecule `Cc1ccc(C(C2=C(O)CC(C)(C)CC2=O)c2c(O)[nH]c(=O)[nH]c2=O)cc1` (stereo not drawn) [Compound 5p, 5-((2-Hydroxy-4,4-dimethyl-6-oxocyclohex-1-en-1-yl)(p-tolyl)methyl)-2,6-dioxo-1,2,3,6-tetrahydropyrimidin-4-olate diethylaminium salt] showed an IC50 of 27.4 ± 0.54 µM. For the molecule `CC1(C)CC(=O)C(C(c2ccc(C=O)cc2)c2c(O)[nH]c(=O)[nH]c2=O)=C(O)C1` (stereo not drawn) [Compound 5q, 2-((4-Formylphenyl)(6-hydroxy-2,4-dioxo-1,2,3,4-tetrahydropyrimidin-5-yl)methyl)-5,5-dimethyl-3-oxocyclohex-1-enolate diethylaminium salt], the IC50 is 41.6 ± 0.41 µM.

`CC1(C)CC(=O)C(C(c2ccc3ccccc3c2)c2c(O)[nH]c(=O)[nH]c2=O)=C(O)C1` (stereo not drawn) [Compound 5r, 5-((2-Hydroxy-4,4-dimethyl-6-oxocyclohex-1-en-1-yl)(naphthalen-2-yl)methyl)-2,6-dioxo-1,2,3,6-tetrahydropyrimidin-4-olate diethylaminium salt] had an IC50 of 82.8 ± 0.72 µM. In the case of `CC1(C)CC(=O)C(C(C2=C(O)CC(C)(C)CC2=O)c2ccc3ccccc3c2)=C(O)C1` [Compound 5s, 2-((2-Hydroxy-4,4-dimethyl-6-oxocyclohex-1-en-1-yl)(naphthalen-2-yl)methyl)-5,5-dimethyl-3-oxocyclohex-1-enolate diethylaminium salt], half-maximal inhibition (IC50) was put at 123.2 ± 0.37 µM and the “urease inhibitory activity in words” value was “inactivity”.
